The EC50 is the midpoint of the concentration-response curve. Low readings indicate higher potency in that assay, high ones lower potency in that assay. Broadly, the IC50 is the concentration that gives 50% inhibition. One may read the Emax as the greatest response seen or fitted, relative to the assay's reference.

Data set [1] deals with T1, Mu-type opioid receptor (Homo sapiens, UniProt P35372). The experiment in a line: Agonist activity at human mu opioid receptor stably transfected in CHO cells by cAMP assay. Format: functional, cell-based.
T1 sequence (P35372 whole entry): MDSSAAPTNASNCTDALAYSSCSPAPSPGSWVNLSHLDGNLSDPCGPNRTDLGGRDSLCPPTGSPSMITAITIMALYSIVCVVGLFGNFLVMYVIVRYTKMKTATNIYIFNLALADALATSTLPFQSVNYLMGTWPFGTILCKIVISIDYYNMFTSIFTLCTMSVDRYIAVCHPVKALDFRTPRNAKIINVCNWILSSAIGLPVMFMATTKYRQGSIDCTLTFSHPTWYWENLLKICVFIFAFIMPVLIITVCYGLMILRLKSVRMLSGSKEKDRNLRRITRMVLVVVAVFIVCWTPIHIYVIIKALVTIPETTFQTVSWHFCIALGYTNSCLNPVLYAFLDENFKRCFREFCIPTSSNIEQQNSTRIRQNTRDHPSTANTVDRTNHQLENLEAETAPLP
The target of data set [2] is T1, Mu-type opioid receptor. The experiment in a line: Antagonist activity at human mu opioid receptor stably transfected in CHO cells assessed as decrease in DAMGO induced receptor activation by cAMP assay. Format: functional, cell-based. In general terms: cAMP levels reflect the balance of adenylyl cyclase and phosphodiesterase activity.
Data set [3] concerns the target T1, Mu-type opioid receptor. The data set is described as follows: Agonist activity at human mu opioid receptor stably transfected in CHO cells assessed as maximal response by cAMP assay relative to DAMGO. Format: functional, cell-based.
Data set [4] in a line: Plasma concentration in Sprague-Dawley rat at 30 mg/kg, po and measured after 1 hr. It counts as ADME, organism-based.
The nature of data set [5]: Drug concentration in Sprague-Dawley rat brain at 30 mg/kg, po and measured after 1 hr. Format: ADME, organism-based. Conditions: read-out: Ct.
The nature of data set [6]: Ratio of drug concentration in brain to plasma of Sprague-Dawley rat at 30 mg/kg, po measured after 1 hr. It counts as ADME, organism-based.
Data set [7] deals with Rattus norvegicus. The experiment in a line: Analgesic activity in Sprague-Dawley rat assessed as increase in withdrawal latency at 0.3 to 10 mg/kg, sc by hot plate assay. Format: functional, organism-based. Conditions: dose 0.3-10 mg/kg, time <= 90.0 min. For orientation: Hot-plate and tail-flick tests time the reaction to a heat stimulus.
Data set [8] has as its target T1, Mu-type opioid receptor. The experiment in a line: Antagonist activity at human mu opioid receptor stably transfected in CHO cells assessed as maximal inhibition of DAMGO induced receptor activation by cAMP assay relative to naltrexone. Format: functional, cell-based. Conditions: filed as antagonist.
The test system of data set [9] is Rattus norvegicus. The data set is described as follows: Antianalgesic activity in Sprague-Dawley rat assessed as decrease in (1R,2R)-N-((S)-2-(dimethylamino)-3-(4-hydroxy-2-methylphenyl)propyl)-2-methyl-2-phenylcyclopropane-1-carboxamide induced analgesic effect by measuring withdrawal latency at 10 to 20 mg/kg, sc by hot plate assay. Format: functional, organism-based. Conditions: dose 10-20 mg/kg.

For data set [10], the system named is Rattus norvegicus. The data set is described as follows: Analgesic activity in Sprague-Dawley rat assessed as increase in withdrawal latency at 10 mg/kg, sc by hot plate assay. Format: functional, organism-based.
Data set [11] can be described thus: In vivo receptor occupancy at mu opioid receptor in Sprague-Dawley rat brain at 10 mg/kg, sc measured by LC/MS/MS analysis relative to control. Format: functional.
For data set [12], the system named is Rattus norvegicus. The data set is described as follows: Antianalgesic activity in Sprague-Dawley rat assessed as decrease in (1R,2R)-N-((S)-2-(dimethylamino)-3-(4-hydroxy-2-methylphenyl)propyl)-2-methyl-2-phenylcyclopropane-1-carboxamide induced analgesic effect by measuring withdrawal latency at 10 mg/kg, sc by hot plate assay. Format: functional, organism-based.

Activity calls are given as the source filed them. The rule behind the calls is not given here.

Consider `CN(C)[C@H](CNC(=O)[C@H]1C[C@@]1(C)c1ccccc1)Cc1ccc(O)cc1`, for which the EC50 at Mu-type opioid receptor [1] is greater than 3000 nM. The IC50 on Mu-type opioid receptor [2] is greater than 3000 nM.
On to `CN(C)[C@H](CNC(=O)[C@@H]1C[C@@]1(C)c1ccccc1)Cc1ccc(O)cc1`, for which a half-maximal response at Mu-type opioid receptor [1] (EC50) required 0.87 nM. Besides, the Emax at Mu-type opioid receptor [3] (filed as agonist) came to 90%. The concentration at 1 h is 3.7 ng/mL in [4] and 3.3 ng/g in [5]. For the same molecule, the BPR in data set [6] is 89%. The Activity result in the data set on Rattus norvegicus [7] is “Dose-Dependent Effect”.
Take `Cc1cc(O)ccc1C[C@@H](CNC(=O)[C@@H]1C[C@@]1(C)c1ccccc1)N(C)C`: the EC50 at Mu-type opioid receptor [1] came to 0.33 nM. The Emax on Mu-type opioid receptor [3] (filed as agonist) turned out to be 100%.
For the molecule `C[C@H](OC(=O)NC[C@H](Cc1ccc(O)cc1)N(C)C)c1ccccc1`, at Mu-type opioid receptor [1], the EC50 was 180 nM. In addition, the figures for the concentration at 1 h in data set [4] and in data set [5] were 149 ng/mL and 481 ng/g, respectively. Besides, the BPR in [6] is 323%.
As for `C[C@@H](CC(=O)NC[C@H](Cc1ccc(O)cc1)N(C)C)c1ccccc1`, at Mu-type opioid receptor [3] (filed as agonist), the maximum response (Emax) came to 68%. The values for the concentration at 1 h in [4] and in data set [5] were 16.9 ng/mL and 14.4 ng/g, respectively. The BPR in [6] came out at 85%.
`C[C@@H](OC(=O)NC[C@@H](Cc1ccc(O)cc1)N(C)C)c1ccccc1` gave an EC50 at Mu-type opioid receptor [1] of 950 nM.
Still for that read-out and setting: as for `C[C@H](OC(=O)NC[C@@H](Cc1ccc(O)cc1)N(C)C)c1ccccc1`, the figure is greater than 3000 nM.
At Mu-type opioid receptor [1], `CN(C)[C@H](CNC(=O)[C@@H]1C[C@]1(C)c1ccccc1)Cc1ccc(O)cc1` displayed a half-maximal effective concentration (EC50) greater than 3000 nM. Further, the IC50 at Mu-type opioid receptor [2] amounted to 110 nM. Moreover, at Mu-type opioid receptor [8], the Imax is 100%. The outcome in the data set on Rattus norvegicus [9] was Active. Besides, the result in the data set on Rattus norvegicus [10] was inactive.
`CN(C)[C@H](CNC(=O)N[C@H](c1ccccc1)C1CC1)Cc1ccc(O)cc1` had an EC50 on Mu-type opioid receptor [1] of 7.3 nM.
In turn, `CN(C)[C@H](CNC(=O)[C@@H]1C[C@]1(C)c1ccccc1)Cc1ccc(O)cc1Cl` registered an EC50 on Mu-type opioid receptor [1] greater than 3000 nM. Also, the 50% inhibitory concentration (IC50) on Mu-type opioid receptor [2] came to 29 nM. The Imax at Mu-type opioid receptor [8] came out at 100%. The molecule further yielded an Activity in data set [11] of 70%. The result in the data set on Rattus norvegicus [12] was Active.
In the case of `C[C@H](NC(=O)NC[C@H](Cc1ccc(O)cc1)N(C)C)c1ccccc1`, the concentration giving a half-maximal response (EC50) on Mu-type opioid receptor [1] came to 21 nM. Besides, the maximum response (Emax) on Mu-type opioid receptor [3] (filed as agonist) came out at 48%. Also, the results for the concentration at 1 h in data set [4] and in data set [5] were 190 ng/mL and 33 ng/g, respectively. Further, the BPR in data set [6] is listed as 17%.
Molecule `CN(C)[C@@H](CNC(=O)N[C@@H](c1ccccc1)C1CC1)Cc1ccc(O)cc1` returned an EC50 at Mu-type opioid receptor [1] of 243 nM.
Still for that read-out and setting: for `CN(C)[C@@H](CNC(=O)N[C@H](c1ccccc1)C1CC1)Cc1ccc(O)cc1` the value was 346 nM.
For the molecule `C[C@@H](CC(=O)NC[C@H](Cc1c(F)cc(O)cc1F)N(C)C)c1ccccc1`, at Mu-type opioid receptor [3], the Emax came to 33%. For the same molecule, the concentration at 1 h came to 5.4 ng/mL in [4] and 3.9 ng/g in data set [5]. In data set [6], the BPR came out at 72%.
Regarding `C[C@H](CC(=O)NC[C@H](Cc1ccc(O)cc1)N(C)C)c1ccccc1`, the Emax on Mu-type opioid receptor [3] (filed as agonist) amounted to 68%. The values for the concentration at 1 h in [4] and in [5] were 23.3 ng/mL and 29.2 ng/g, respectively. Further, the BPR in data set [6] stood at 125%.
With `CN(C)[C@H](CNC(=O)N[C@@H](c1ccccc1)C1CC1)Cc1ccc(O)cc1`, the EC50 on Mu-type opioid receptor [1] worked out at 104 nM.
The molecule `CN(C)[C@H](CNC(=O)O[C@H](c1ccccc1)C1CC1)Cc1ccc(O)cc1` came in with a concentration giving a half-maximal response (EC50) on Mu-type opioid receptor [1] of 770 nM. On Mu-type opioid receptor [3], the Emax stood at 26%.
For `Cc1cc(O)cc(C)c1C[C@@H](CNC(=O)[C@@H]1C[C@@]1(C)c1ccccc1)N(C)C`, the EC50 at Mu-type opioid receptor [1] amounted to 2 nM. The maximum response (Emax) on Mu-type opioid receptor [3] came out at 27%. For the same molecule, in the data set with Rattus norvegicus [9], the outcome was Active. Also, the result with Rattus norvegicus [10] was inactive.
For `C[C@@H](OC(=O)NC[C@H](Cc1ccc(O)cc1)N(C)C)c1ccccc1`, the EC50 at Mu-type opioid receptor [1] was 62 nM. This lies in the double-digit nanomolar range.
Consider `CN(C)[C@H](CNC(=O)[C@H]1C[C@]1(C)c1ccccc1)Cc1ccc(O)cc1`, for which the EC50 on Mu-type opioid receptor [1] was greater than 3000 nM. Moreover, on Mu-type opioid receptor [2], the 50% inhibitory concentration (IC50) was found to be 210 nM. In addition, at Mu-type opioid receptor [8], the Imax came to 100%.

The record behind these values is ChEMBL document CHEMBL5365409, “Novel series of tunable µOR modulators with enhanced brain penetration for the treatment of opioid use disorder, pain and neuropsychiatric indications” (Bioorg Med Chem Lett, 2023).
